Test results: the kinase profiling compilation of Christmann-Franck et al. (2016)
Several values for one entry are separate records, joined by “and”; a condition that tells them apart may be missing. Equal entries are not always repeated.

Columns and labels:
Assay in all cases: radiometric filter-binding kinase assay, Kinase HotSpot
Conditions in all cases: compound 0.5 µM; ATP 10 µM
GRK4 (human) = GRK4 (human) (UniProt P32298)
PRKG2 (human) = PRKG2 (human) (UniProt Q13237)
NEK2 (human) = NEK2 (human) (UniProt P51955)
PRKD2 (human) = PRKD2 (human) (UniProt Q9BZL6)
SLK (human) = SLK (human) (UniProt Q9H2G2)
MELK (human) = MELK (human) (UniProt Q14680)
PTK6 (human) = PTK6 (human) (UniProt Q13882)
PDGFRB (human) = PDGFRB (human) (UniProt P09619)
CSNK1A1 (human) = CSNK1A1 (human) (UniProt P48729)
WEE1 (human) = WEE1 (human) (UniProt P30291)
WEE1 (human), sequence (P30291 whole entry, looked up): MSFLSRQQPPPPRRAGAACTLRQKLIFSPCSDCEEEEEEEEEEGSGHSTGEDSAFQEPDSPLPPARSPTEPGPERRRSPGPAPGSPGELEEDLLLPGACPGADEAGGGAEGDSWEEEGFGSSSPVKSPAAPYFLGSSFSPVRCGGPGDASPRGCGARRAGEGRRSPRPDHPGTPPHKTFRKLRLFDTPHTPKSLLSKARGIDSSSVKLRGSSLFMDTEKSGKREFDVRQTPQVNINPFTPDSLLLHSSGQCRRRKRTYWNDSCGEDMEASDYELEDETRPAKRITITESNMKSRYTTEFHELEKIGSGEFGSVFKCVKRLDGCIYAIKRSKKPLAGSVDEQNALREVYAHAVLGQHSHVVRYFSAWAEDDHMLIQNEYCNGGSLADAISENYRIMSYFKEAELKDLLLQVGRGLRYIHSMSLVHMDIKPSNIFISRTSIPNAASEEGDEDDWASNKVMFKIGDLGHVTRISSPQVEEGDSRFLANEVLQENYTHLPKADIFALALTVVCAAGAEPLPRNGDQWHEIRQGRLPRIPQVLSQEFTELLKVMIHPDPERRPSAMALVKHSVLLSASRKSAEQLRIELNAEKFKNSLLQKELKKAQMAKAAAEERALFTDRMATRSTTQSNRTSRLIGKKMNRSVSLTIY

CDK9 CCNT1 (human) = CDK9 CCNT1 (human) (UniProt P50750+O60563)
CDK9 CCNT1 (human), sequence (O60563 whole entry, looked up): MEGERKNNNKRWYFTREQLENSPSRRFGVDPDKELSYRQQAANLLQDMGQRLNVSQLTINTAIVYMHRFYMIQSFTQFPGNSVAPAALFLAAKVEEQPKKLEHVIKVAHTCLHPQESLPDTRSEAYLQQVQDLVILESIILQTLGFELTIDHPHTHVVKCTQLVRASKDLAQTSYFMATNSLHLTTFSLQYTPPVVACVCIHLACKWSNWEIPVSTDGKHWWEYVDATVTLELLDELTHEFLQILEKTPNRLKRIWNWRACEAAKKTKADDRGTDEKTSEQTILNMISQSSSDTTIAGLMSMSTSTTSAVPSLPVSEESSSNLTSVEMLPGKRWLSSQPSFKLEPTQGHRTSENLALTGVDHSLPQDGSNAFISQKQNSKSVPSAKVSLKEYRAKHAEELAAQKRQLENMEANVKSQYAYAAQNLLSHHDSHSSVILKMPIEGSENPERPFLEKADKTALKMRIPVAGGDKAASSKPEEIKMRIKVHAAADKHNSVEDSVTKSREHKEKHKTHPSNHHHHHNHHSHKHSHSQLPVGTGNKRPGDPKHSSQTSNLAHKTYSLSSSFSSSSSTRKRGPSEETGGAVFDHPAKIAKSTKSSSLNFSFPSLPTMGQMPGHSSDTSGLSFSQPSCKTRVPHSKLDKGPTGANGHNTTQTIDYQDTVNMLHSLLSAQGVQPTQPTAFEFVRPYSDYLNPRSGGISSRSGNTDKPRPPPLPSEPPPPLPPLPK
CDK9 CCNT1 (human), sequence (P50750 whole entry, looked up): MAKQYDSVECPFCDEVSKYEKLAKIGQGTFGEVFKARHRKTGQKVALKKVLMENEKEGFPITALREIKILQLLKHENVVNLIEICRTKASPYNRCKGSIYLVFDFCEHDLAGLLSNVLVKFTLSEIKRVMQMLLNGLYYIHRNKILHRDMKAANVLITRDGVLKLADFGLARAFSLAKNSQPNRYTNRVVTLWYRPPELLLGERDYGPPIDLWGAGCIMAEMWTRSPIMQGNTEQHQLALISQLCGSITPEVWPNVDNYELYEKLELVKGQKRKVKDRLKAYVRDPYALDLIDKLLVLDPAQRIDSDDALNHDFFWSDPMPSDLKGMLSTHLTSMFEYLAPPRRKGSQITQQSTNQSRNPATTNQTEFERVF

CLK4 (human) = CLK4 (human) (UniProt Q9HAZ1)
MAPK9 (human) = MAPK9 (human) (UniProt P45984)
LYN (human) = LYN (human) (UniProt P07948)
NTRK1 (human) = NTRK1 (human) (UniProt P04629)
EPHB2 (human) = EPHB2 (human) (UniProt P29323)
EPHB2 (human), sequence (P29323 whole entry, looked up): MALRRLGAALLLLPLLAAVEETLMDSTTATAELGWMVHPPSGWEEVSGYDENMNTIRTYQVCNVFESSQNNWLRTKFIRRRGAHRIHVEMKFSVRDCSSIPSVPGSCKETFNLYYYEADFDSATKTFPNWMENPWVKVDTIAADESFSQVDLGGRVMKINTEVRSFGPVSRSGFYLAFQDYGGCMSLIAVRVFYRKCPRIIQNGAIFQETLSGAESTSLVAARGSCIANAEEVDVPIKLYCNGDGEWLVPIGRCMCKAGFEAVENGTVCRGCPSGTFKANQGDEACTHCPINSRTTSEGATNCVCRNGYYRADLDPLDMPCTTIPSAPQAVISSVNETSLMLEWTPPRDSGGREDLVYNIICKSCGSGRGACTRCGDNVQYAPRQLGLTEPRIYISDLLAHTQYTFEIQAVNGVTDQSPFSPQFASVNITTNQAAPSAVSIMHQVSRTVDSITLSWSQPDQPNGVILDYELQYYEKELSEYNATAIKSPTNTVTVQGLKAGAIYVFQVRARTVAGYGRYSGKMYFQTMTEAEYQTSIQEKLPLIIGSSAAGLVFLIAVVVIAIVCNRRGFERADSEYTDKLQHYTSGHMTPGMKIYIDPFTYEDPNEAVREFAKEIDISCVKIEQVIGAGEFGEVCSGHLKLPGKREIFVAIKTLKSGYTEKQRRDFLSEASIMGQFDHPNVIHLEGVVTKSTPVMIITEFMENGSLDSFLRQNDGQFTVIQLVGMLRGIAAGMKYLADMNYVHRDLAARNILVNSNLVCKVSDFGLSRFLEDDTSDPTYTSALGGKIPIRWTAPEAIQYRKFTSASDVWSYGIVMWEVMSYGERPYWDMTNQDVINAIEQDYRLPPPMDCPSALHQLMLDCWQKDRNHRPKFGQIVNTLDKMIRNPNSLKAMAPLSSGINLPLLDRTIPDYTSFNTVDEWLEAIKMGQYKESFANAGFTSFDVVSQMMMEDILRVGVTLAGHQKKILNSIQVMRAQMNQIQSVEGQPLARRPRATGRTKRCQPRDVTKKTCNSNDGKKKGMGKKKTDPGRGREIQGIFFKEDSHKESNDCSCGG

IRAK4 (human) = IRAK4 (human) (UniProt Q9NWZ3)
PTK2 (human) = PTK2 (human) (UniProt Q05397)
PTK2 (human), sequence (Q05397 whole entry, looked up): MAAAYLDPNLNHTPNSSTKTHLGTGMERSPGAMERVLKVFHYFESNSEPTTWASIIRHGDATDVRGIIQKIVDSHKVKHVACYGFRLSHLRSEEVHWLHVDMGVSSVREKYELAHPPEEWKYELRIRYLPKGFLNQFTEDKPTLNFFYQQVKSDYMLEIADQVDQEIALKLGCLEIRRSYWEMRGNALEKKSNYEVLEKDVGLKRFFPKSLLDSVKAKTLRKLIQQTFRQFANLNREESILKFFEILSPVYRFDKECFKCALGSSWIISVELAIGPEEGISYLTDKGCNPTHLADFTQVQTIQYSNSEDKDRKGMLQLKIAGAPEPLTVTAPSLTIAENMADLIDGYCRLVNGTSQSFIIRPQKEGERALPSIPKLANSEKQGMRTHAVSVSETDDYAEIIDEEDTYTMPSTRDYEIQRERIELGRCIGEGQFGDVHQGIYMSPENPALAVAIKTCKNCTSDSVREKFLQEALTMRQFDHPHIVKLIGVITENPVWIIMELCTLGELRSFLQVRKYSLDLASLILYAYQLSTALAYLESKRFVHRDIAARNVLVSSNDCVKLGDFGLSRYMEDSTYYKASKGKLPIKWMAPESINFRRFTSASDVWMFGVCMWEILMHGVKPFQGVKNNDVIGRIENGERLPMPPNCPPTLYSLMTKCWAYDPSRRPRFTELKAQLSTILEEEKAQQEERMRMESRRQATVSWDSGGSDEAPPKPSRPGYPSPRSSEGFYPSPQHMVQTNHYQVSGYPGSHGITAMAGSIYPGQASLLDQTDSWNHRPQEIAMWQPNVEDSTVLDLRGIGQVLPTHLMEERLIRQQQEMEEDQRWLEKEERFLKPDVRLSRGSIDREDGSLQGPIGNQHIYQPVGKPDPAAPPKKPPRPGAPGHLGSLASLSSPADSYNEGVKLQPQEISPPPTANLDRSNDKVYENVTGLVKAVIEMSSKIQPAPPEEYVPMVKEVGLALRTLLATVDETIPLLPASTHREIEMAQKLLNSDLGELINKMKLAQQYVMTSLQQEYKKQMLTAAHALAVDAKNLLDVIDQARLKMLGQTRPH

PHKG1 (human) = PHKG1 (human) (UniProt Q16816)
MAPKAPK2 (human) = MAPKAPK2 (human) (UniProt P49137)
FGFR3 (human) = FGFR3 (human) (UniProt P22607)
SRMS (human) = SRMS (human) (UniProt Q9H3Y6)
NTRK3 (human) = NTRK3 (human) (UniProt Q16288)
AXL (human) = AXL (human) (UniProt P30530)
SRC (human) = SRC (human) (UniProt P12931)
PRKCE (human) = PRKCE (human) (UniProt Q02156)
MAPK3 (human) = MAPK3 (human) (UniProt P27361)
RPS6KA6 KD1 KD2 (human) = RPS6KA6 KD1 KD2 (human) (UniProt Q9UK32)
NTRK2 (human) = NTRK2 (human) (UniProt Q16620)
KIT (human) = KIT (human) (UniProt P10721)
MLTK (human) = MLTK (human) (UniProt Q9NYL2)
PLK3 (human) = PLK3 (human) (UniProt Q9H4B4)
PLK3 (human), sequence (Q9H4B4 whole entry, looked up): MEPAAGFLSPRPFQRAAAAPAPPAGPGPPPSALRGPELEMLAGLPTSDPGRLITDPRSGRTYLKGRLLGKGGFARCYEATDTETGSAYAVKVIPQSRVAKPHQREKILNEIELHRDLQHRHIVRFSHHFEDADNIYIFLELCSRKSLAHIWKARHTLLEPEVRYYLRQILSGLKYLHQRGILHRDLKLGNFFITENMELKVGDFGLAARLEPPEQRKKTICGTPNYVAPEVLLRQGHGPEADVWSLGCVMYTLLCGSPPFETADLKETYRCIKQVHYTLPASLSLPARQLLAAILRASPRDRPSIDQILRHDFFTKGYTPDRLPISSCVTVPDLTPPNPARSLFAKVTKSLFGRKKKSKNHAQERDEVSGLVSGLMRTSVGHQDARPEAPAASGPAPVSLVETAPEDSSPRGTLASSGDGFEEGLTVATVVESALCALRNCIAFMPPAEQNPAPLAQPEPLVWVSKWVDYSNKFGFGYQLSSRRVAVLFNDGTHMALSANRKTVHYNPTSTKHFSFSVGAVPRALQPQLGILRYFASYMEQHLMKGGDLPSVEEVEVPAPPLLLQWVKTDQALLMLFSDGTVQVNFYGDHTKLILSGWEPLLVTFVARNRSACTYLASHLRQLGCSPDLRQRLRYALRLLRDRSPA

CLK3 (human) = CLK3 (human) (UniProt P49761)
CLK3 (human), sequence (P49761 whole entry, looked up): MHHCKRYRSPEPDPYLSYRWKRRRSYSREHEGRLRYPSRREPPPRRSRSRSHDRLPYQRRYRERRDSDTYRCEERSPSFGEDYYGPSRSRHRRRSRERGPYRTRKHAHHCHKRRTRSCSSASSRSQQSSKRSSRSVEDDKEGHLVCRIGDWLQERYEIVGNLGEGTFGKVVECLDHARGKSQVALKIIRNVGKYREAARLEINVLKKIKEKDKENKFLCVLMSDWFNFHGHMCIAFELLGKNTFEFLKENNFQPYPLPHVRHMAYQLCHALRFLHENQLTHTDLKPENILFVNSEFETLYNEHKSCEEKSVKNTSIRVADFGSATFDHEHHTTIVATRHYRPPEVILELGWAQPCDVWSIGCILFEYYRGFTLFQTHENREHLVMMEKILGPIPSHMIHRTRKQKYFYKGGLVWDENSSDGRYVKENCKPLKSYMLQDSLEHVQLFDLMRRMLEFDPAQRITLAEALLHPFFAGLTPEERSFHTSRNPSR

STK16 (human) = STK16 (human) (UniProt O75716)
PAK4 (human) = PAK4 (human) (UniProt O96013)
BRSK1 (human) = BRSK1 (human) (UniProt Q8TDC3)
MAPK14 (human) = MAPK14 (human) (UniProt Q16539)
NEK1 (human) = NEK1 (human) (UniProt Q96PY6)
ADRBK2 (human) = ADRBK2 (human) (UniProt P35626)
TTK (human) = TTK (human) (UniProt P33981)

Structure (SMILES) | residual activity (GRK4 (human)) [%] | residual activity (PRKG2 (human)) [%] | residual activity (NEK2 (human)) [%] | residual activity (PRKD2 (human)) [%] | residual activity (SLK (human)) [%] | residual activity (MELK (human)) [%] | residual activity (PTK6 (human)) [%] | residual activity (PDGFRB (human)) [%] | residual activity (CSNK1A1 (human)) [%] | residual activity (WEE1 (human)) [%] | residual activity (CDK9 CCNT1 (human)) [%] | residual activity (CLK4 (human)) [%] | residual activity (MAPK9 (human)) [%] | residual activity (LYN (human)) | residual activity (NTRK1 (human)) [%] | residual activity (EPHB2 (human)) [%] | residual activity (IRAK4 (human)) [%] | residual activity (PTK2 (human)) [%] | residual activity (PHKG1 (human)) [%] | residual activity (MAPKAPK2 (human)) [%] | further results
O=c1cc(N2CCOCC2)oc2c1ccc1ccccc12 | 104 | 102 | 94.8 | 101 | 102 | 103 | 101 | 111 | 115 | 101 | 99.1 | 101 | 101 | 102% and 104% | 96.4 | 85 | 122 | 108 | 98.2 | 98.3 | residual activity (FGFR3 (human)): 98.2%; residual activity (SRMS (human)): 97.1%; residual activity (NTRK3 (human)): 103%; residual activity (AXL (human)): 98.1%; residual activity (SRC (human)): 99.3%; residual activity (PRKCE (human)): 89.6%; residual activity (MAPK3 (human)): 106%; residual activity (RPS6KA6 KD1 KD2 (human)): 95.4%; residual activity (NTRK2 (human)): 94%; residual activity (KIT (human)): 105%; residual activity (MLTK (human)): 98%; residual activity (PLK3 (human)): 64%; residual activity (CLK3 (human)): 81.1%; residual activity (STK16 (human)): 99%; residual activity (PAK4 (human)): 108%; residual activity (BRSK1 (human)): 100%; residual activity (MAPK14 (human)): 96.7%; residual activity (NEK1 (human)): 106%; residual activity (ADRBK2 (human)): 102%; residual activity (TTK (human)): 103%
CC#CC(=O)Nc1cc2c(Nc3ccc(F)c(Cl)c3)ncnc2cn1 | 104 | 105 | 103 | 97.6 | 93.6 | 101 | 56.8 | 103 | 107 | 93.2 | 90.6 | 90.4 | 91.8 | 88.3% and 96.1% | 98.5 | 80.9 | 102 | 102 | 103 | 104 | residual activity (FGFR3 (human)): 108%; residual activity (SRMS (human)): 96.1%; residual activity (NTRK3 (human)): 95.3%; residual activity (AXL (human)): 100%; residual activity (SRC (human)): 97.7%; residual activity (PRKCE (human)): 88.3%; residual activity (MAPK3 (human)): 100%; residual activity (RPS6KA6 KD1 KD2 (human)): 95.3%; residual activity (NTRK2 (human)): 100%; residual activity (KIT (human)): 98.5%; residual activity (MLTK (human)): 85.8%; residual activity (PLK3 (human)): 100%; residual activity (CLK3 (human)): 47.1%; residual activity (STK16 (human)): 104%; residual activity (PAK4 (human)): 107%; residual activity (BRSK1 (human)): 102%; residual activity (MAPK14 (human)): 101%; residual activity (NEK1 (human)): 105%; residual activity (ADRBK2 (human)): 103%; residual activity (TTK (human)): 104%
Cc1ccc(S(=O)(=O)/C=C/C#N)cc1 | 96.8 | 102 | 101 | 98.1 | 101 | 92 | 93.1 | 103 | 95.6 | 96.4 | 98.2 | 89.7 | 102 | 101% and 108% | 90.1 | 104 | 161 | 104 | 95.8 | 93.7 | residual activity (FGFR3 (human)): 95.2%; residual activity (SRMS (human)): 98.8%; residual activity (NTRK3 (human)): 95.5%; residual activity (SRC (human)): 102%; residual activity (PRKCE (human)): 106%; residual activity (MAPK3 (human)): 98.2%; residual activity (RPS6KA6 KD1 KD2 (human)): 95.4%; residual activity (NTRK2 (human)): 98.5%; residual activity (KIT (human)): 102%; residual activity (MLTK (human)): 94.7%; residual activity (PLK3 (human)): 97.1%; residual activity (CLK3 (human)): 106%; residual activity (STK16 (human)): 88.3%; residual activity (PAK4 (human)): 91.9%; residual activity (BRSK1 (human)): 97.2%; residual activity (MAPK14 (human)): 97.4%; residual activity (NEK1 (human)): 92.3%; residual activity (ADRBK2 (human)): 99.1%; residual activity (TTK (human)): 107%
